Like-named read-outs stand apart in the source and are kept apart here.
Tests used:
[1] = Stability in rat plasma under storage conditions; format: physicochemical
Procedure: (§1) In addition, the stabilities of cinobufotalin at 20, 200, and 2000 ng/mL in different storage conditions were evaluated, including short term stability (such as 25°C for 4, 8, 12, and 24 h and 4°C for 4, 8, 12, and 24 h), long term stability (-80°C for 10 days) and three freeze-thaw cycles in rat plasma. Stabilities were expressed as the concentrations after different operations to the concentration at time zero. All of the samples were processed as described in Preparation of rat plasma samples section. A 5 μL aliquot was injected to UPLC-QTOF/MS for analyses.

[2] = Stability in 50% acetonitrile solution; format: physicochemical
Procedure: as §1
In addition, we also evaluated the stability of cinobufotalin in 50% accetonitrile solution at 4°C and room temperature (25°C) after storage for 4, 8, 12, and 24 h.

[3] = Liver distribution of cinobufotalin in normal and DEN-injured rats; format: in vivo; settings: male, Sprague Dawley, rat, iv, 2.5 mg/kg, i.v. 2.5 mg/kg, after the last sampling time point (24 h), read-out: concentration of cinobufotalin in liver tissues
Procedure: For PK studies, the rats were randomly divided into two experimental groups (10 rats for normal rats group and 20 rats for DEN-injured rats group, considering the animal casualties during the modeling process). HCC rat model was established by intraperitoneal administration of 50 mg/kg DEN two times per week ([Fuchs et al., 2014]), and the control group rats were treated with normal saline in the same way. After 14 weeks of administration, three rats were randomly selected and anesthetized by anesthesia cocktail (Ketamine 50 mg/mL, Xylazine 3.3 mg/mL and Acetopromazine 3.3 mg/mL). Then the liver was taken out and photographed to determine whether the animal model was successfully constructed.
Before PK experiment, a cannula was introduced into the jugular vein of the anesthetized rat and administrated carprofen subcutaneously after the surgery. After observation for 24 h, when the activity and excretion of rats were normal, rats were dosed with cinobufotalin at 2.5 mg/kg through jugular vein cannula. Blood samples (200 μL) were withdrawn at each pointed time (5, 10, 15, 30, 45 min, and 1, 1.5, 2, 4, 6, 8, 12, and 24 h) after dosing, and whole blood was transferred into tubes pre-treated with heparin (1000 U/mL). Then an equal volume of saline was injected into rats through jugular vein cannula immediately. […]

Huh-7 cells = assay: Wound healing assay, Huh-7 cells; format: cell-based; settings: 40, 60 and 80 nM, 24 h
Procedure: (§2) Hepatocellular cancer cells (HepG2 and Huh-7) were purchased from the cell bank of the Chinese Academy of Science (Shanghai, China). These cells were cultured in Dulbecco’s modified Eagle’s medium (DMEM) containing 10% fetal bovine serum (FBS), penicillin (100 units/mL) and streptomycin (100 units/mL) in a humidified atmosphere with 5% CO2 at 37 °C.
Wound healing assay was used to investigate the effect of cinobufotalin on the migration of HepG2 and Huh-7 cells. Cells were seeded into 6-well plates at the density of 4 × 10^5 cells/well and maintained until reaching monolayer confluence. The cells were scratched using 20-μL pipette tips and rinsed with PBS buffer for three times. And then the cells were cultured in serum-free medium containing different concentrations of cinobufotalin (40, 60, 80 nM). After treatment with cinobufotalin for different lengths of time (0 and 24 h), the width of wound was measured and the images of cells were acquired using inverted microscope (Leica, Wetzlar, German). The rate of wound healing = [(the wound width of 0 h - 24 h)/0 h wound width] × 100%. All experiments were performed in triplicate.

HepG2 cells = assay: Cell viability CCK-8 assay, HepG2 cells; format: cell-based; settings: Homo sapiens, 40 nM, 60 nM and 80 nM, 24 h, read-out: inhibition of HepG2 cells growth (CCK-8)
Procedure: as §2
Furthermore, the effect of cinobufotalin at 40, 60, 80 nM on hepatocellular cancer cells (HepG2 and Huh-7 cells) viability was conducted using Cell Counting Kit - 8 (CCK-8) assay (Sigma-Aldrich, St Louis, MO). In brief, cells were seeded into 96-well plates at 5 × 10^3 cells/well and cultured for 24 h in DMEM medium as described in 1.1 section. Then various concentrations of cinobufotalin (40, 60, 80 nM) were added into cells. After 24 h treatment, 10 μL of CCK-8 solution was added into every well of the plate. The plate was incubated in the incubator for other 4 h, and then the absorbance was measured at 450 nm using a microplate reader (Thermo Scientific, Rockford, IL). The cell viability was calculated by the formula: cell viability (100%) = (OD value of the treated wells - OD value of the blank control wells) / (OD value of the negative control wells - OD value of the blank control wells).

CYP3A4 = system: CYP3A4; parameters: method as in Han et al., 2016; settings: especially mediated by CYP3A4; ref Han et al., 2016; cited from earlier work
[4] = parameters: method as in Bick et al., 2002; Bi et al., 2016; settings: ref Bick et al., 2002, Bi et al., 2016; cited from earlier work

In the case of `CC(=O)O[C@H]1[C@H]2O[C@]23[C@@H]2CC[C@]4(O)C[C@@H](O)CC[C@]4(C)[C@H]2CC[C@]3(C)[C@H]1c1ccc(=O)oc1` [Cinobufotalin], the “Stability in rat plasma, Freezing-thaw 3 cycles” value ([1]; 20 ng/mL) is reported as 99.2 ± 0.8%, the “Stability in rat plasma, -80°C for 10 days” value ([1]; 200 ng/mL) is reported as 100.9 ± 1.2% and the “Stability in rat plasma, Freezing-thaw 3 cycles” value ([1]; 200 ng/mL) is reported as 95.6 ± 1.6%. The “Stability in rat plasma, -80°C for 10 days” value ([1]; 2000 ng/mL) was 97.3 ± 5.6%, the “Stability in rat plasma, Freezing-thaw 3 cycles” value ([1]; 2000 ng/mL) was 99.2 ± 0.6% and the “Stability in 50% Acetonitrile solution, 4°C, 4 h” value ([2]; 20 ng/mL) was 97.5 ± 5.7%. For the same compound, the “Stability in 50% Acetonitrile solution, 4°C, 8 h” value ([2]; 20 ng/mL) was 101.9 ± 3.6%, the “Stability in 50% Acetonitrile solution, 4°C, 12 h” value ([2]; 20 ng/mL) was 99.1 ± 2.5% and the “Stability in 50% Acetonitrile solution, 4°C, 24 h” value ([2]; 20 ng/mL) was 100.4 ± 2.7%. The “Stability in 50% Acetonitrile solution, 25°C, 4 h” value ([2]; 20 ng/mL) was 99.5 ± 4.4%, the “Stability in 50% Acetonitrile solution, 25°C, 8 h” value ([2]; 20 ng/mL) was 97.1 ± 2.3% and the “Stability in 50% Acetonitrile solution, 25°C, 12 h” value ([2]; 20 ng/mL) was 97.7 ± 4.6%. The “Stability in 50% Acetonitrile solution, 25°C, 24 h” value ([2]; 20 ng/mL) was 95.5 ± 4.3%, the “Stability in 50% Acetonitrile solution, 4°C, 4 h” value ([2]; 200 ng/mL) was 102.6 ± 6.8% and the “Stability in 50% Acetonitrile solution, 4°C, 8 h” value ([2]; 200 ng/mL) was 99.5 ± 4.0%. The “Stability in 50% Acetonitrile solution, 4°C, 12 h” value ([2]; 200 ng/mL) was 97.4 ± 2.9%, the “Stability in 50% Acetonitrile solution, 4°C, 24 h” value ([2]; 200 ng/mL) was 96.7 ± 2.6% and the “Stability in 50% Acetonitrile solution, 25°C, 4 h” value ([2]; 200 ng/mL) was 100.1 ± 2.8%. The “Stability in 50% Acetonitrile solution, 25°C, 8 h” value ([2]; 200 ng/mL) was 101.2 ± 2.0%, the “Stability in 50% Acetonitrile solution, 25°C, 12 h” value ([2]; 200 ng/mL) was 99.5 ± 4.3% and the “Stability in 50% Acetonitrile solution, 25°C, 24 h” value ([2]; 200 ng/mL) was 99.0 ± 2.8%. For the same compound, the “Stability in 50% Acetonitrile solution, 4°C, 4 h” value ([2]; 2000 ng/mL) was 102.0 ± 5.0%, the “Stability in 50% Acetonitrile solution, 4°C, 8 h” value ([2]; 2000 ng/mL) was 103.7 ± 3.5% and the “Stability in 50% Acetonitrile solution, 4°C, 12 h” value ([2]; 2000 ng/mL) was 96.3 ± 4.0%. The “Stability in 50% Acetonitrile solution, 4°C, 24 h” value ([2]; 2000 ng/mL) was 97.9 ± 2.5%, the “Stability in 50% Acetonitrile solution, 25°C, 4 h” value ([2]; 2000 ng/mL) was 100.3 ± 3.0% and the “Stability in 50% Acetonitrile solution, 25°C, 8 h” value ([2]; 2000 ng/mL) was 99.1 ± 1.1%. For the same compound, the “Stability in 50% Acetonitrile solution, 25°C, 12 h” value ([2]; 2000 ng/mL) was 98.4 ± 3.5%, the “Stability in 50% Acetonitrile solution, 25°C, 24 h” value ([2]; 2000 ng/mL) was 100.5 ± 3.3% and the concentration at 24 h ([3]; DEN-injured rats) was 21 ± 2.7 ng/mL. For the same compound, the concentration at 24 h ([3]; normal rats) was 39.3 ± 4.9 ng/mL, the “migration of Huh-7 cells (wound healing)” value (Huh-7 cells) was “significantly attenuated” and the inhibition at 0.04 µM (HepG2 cells) was < 15%. For the same compound, the “metabolic pathways in human liver microsomes” value (CYP3A4) was “undergo hydroxylation and dehydrogenation” and the “toxicity on over dose” value [4] was “cardiotoxicity and neurotoxicity”.
